Tests used:
human androgen receptor = assay: androgenic activity rating (procedures described above; which test underlies the rating is not stated); design: key: −: no androgenic activity found; +: androgenic activity found; ++: high androgenic activity; +++: excellent androgenic activity; prodrug; conditions: compounds of the invention; rating scheme of Example 18
Description: Androgenic activity can be measured in various ways. Thus, the potency of androgens can be determined in vitro using the cytoplasmic androgen receptor from human breast tumor cells (MCF-7 cell line); see Bergink, E. W. et al, Comparison of the receptor binding properties of nandrolone and testosterone under in vitro and in vivo conditions, J. Steroid Biochem. 22, 831-836 (1985). It is also possible to use Chinese hamster ovary (CHO) cells transfected with the human androgen receptor (incubation time 16 h, temperature 4° C.) and compared with the affinity of 5α-dihydrotestosterone [according to the procedure described by Bergink, E. W. et al, J. Steroid Biochem. 19, 1563-1570 (1983)]. The transactivative androgen activity of the compounds of the invention can be measured, e.g. in Chinese hamster ovary cells (CHO) transfected with the human androgen receptor (hAR), in combination with a mouse mammary tumor virus (MMTV), and luciferase receptor gene (incubation time 16 h, temperature 37° C.) and compared with the activity of 5α-dihydrotestosterone [according to the procedure described by Schoonen, W. G. E. J. et al, Analyt. Biochem. 261, 222-224 (1998)]. For the in vivo potency determination of androgens the classical Hershberger test can be used. In this test the androgenic (increase in prostate weight) and anabolic activities [increase of the musculus levator ani (MLA)] of a compound are tested in immature castrated rats after daily administration for 7 days; see Hershberger, L. G. et al, Myotrophic activity of 19-Nortestosterone and other steroids determined by modified levator ani muscle method, Proceedings of the society for experimental biology and medicine 83, 175-180 (1953). Additionally, the effect of an androgenic compound on LH suppression can be tested in mature castrated rats according to Kumar, N. et al, The biological activity of 7alpha-methyl-19-nortestosterone is not amplified in male reproductive tract as is that of testosterone, Endocrinology 130, 3677-3683 (1992).
The compounds according to the invention and four reference compounds were tested for drogenic activity (the procedures for which have been described above) and rated according the following scheme: […]

C[C@@H]1CC2=CC(=O)CC[C@@H]2[C@H]2CC[C@]3(C)[C@H](CO)C[C@H]4C[C@]43[C@@H]21 [Example 1, (7α,14β,15β,17α)-17-(Hydroxymethyl)-7-methyl-14,15-methyleneestr-4-en-3-one]
melting point: 137 to 140 °C
Res. (androgenic activity) (human androgen receptor): +++

C[C@@H]1CC2=C(CCC(=O)C2)[C@H]2CC[C@]3(C)[C@H](CO)C[C@H]4C[C@]43[C@H]12 [Example 2, (7α,14,β15β,17α)-17-(Hydroxymethyl)-7-methyl-14,15-methyleneestr-5(10)-en-3-one]
Res. (androgenic activity) (human androgen receptor): +

C[C@@H]1CC2=CC(=O)CCC2=C2CC[C@]3(C)[C@H](CO)C[C@H]4C[C@]43[C@@H]21 [Example 3, (7α,14β,15β17α)-17-(Hydroxymethyl)-7-methyl-14,15-methyleneestra-4,9-dienes-3-one]
Res. (androgenic activity) (human androgen receptor): ++

CC1=C2C[C@@H](C)[C@@H]3[C@H](CC[C@]4(C)[C@H](CO)C[C@H]5C[C@@]534)[C@H]2CCC1=O [Example 4, (7α,14β,15β,17α)-17-(Hydroxymethyl)-4,7-dimethyl-14,15-methyleneestr-4-en-3-one]
Res. (androgenic activity) (human androgen receptor): ++

CC[C@@H]1CC2=CC(=O)CC[C@@H]2[C@H]2CC[C@]3(C)[C@H](CO)C[C@H]4C[C@]43[C@H]12 [Example 5, (7α,14β,15β,17α)-7-Ethyl-17-(hydroxymethyl)-14,15-methyleneestr-4-en-3-one]
Res. (androgenic activity) (human androgen receptor): ++

CC[C@]12CC[C@H]3[C@@H]([C@H](C)CC4=CC(=O)CC[C@@H]43)[C@]13C[C@@H]3C[C@H]2CO [Example 6, (7α,14β,15β,17α)-13-Ethyl-17-(hydroxymethyl)-7-methyl-14,15-methylenegon-4-en-3-one]
Res. (androgenic activity) (human androgen receptor): +++

C[C@H]1[C@H]2C[C@]23[C@H]2[C@H](CC[C@]3(C)[C@@H]1CO)[C@H]1CCC(=O)C=C1C[C@H]2C [Example 7, (7α,14β,15β16β,17α)-17-(Hydroxymethyl)-7,16-dimethyl-14,15-methyleneestra-4-en-3-one]
Res. (androgenic activity) (human androgen receptor): +

C[C@@H]1CC2=CC(=O)CC[C@@H]2[C@H]2CC[C@]3(C)[C@](O)(CO)C[C@H]4C[C@]43[C@@H]21 [Example 8, (7α,14β,15β,17β)-17-Hydroxy-17-(hydroxymethyl)-7-methyl-14,15-methyleneestr-4-en-3-one]
Res. (androgenic activity) (human androgen receptor): +

CC(=O)OC[C@]1(F)C[C@H]2C[C@]23[C@H]2[C@H](CC[C@]13C)[C@H]1CCC(=O)C=C1C[C@H]2C [Example 9a, (7α,14β,15β,17β)-17-[(Acetyloxy)methyl]-17-fluoro-7-methyl-14,15-methyleneestr-4-en-3-one]
Res. (androgenic activity) (human androgen receptor): ++

C[C@@H]1CC2=CC(=O)CC[C@@H]2[C@H]2CC[C@]3(C)[C@](F)(CO)C[C@H]4C[C@]43[C@@H]21 [Example 9b, (7α,14β,15β,17β)-17-fluoro-17-(hydroxymethyl)-7-methyl-14,15-methyleneestra-4-en-3-one]
Res. (androgenic activity) (human androgen receptor): ++

CC(=O)OC[C@]1(F)C[C@H]2C[C@]23[C@@H]2[C@H](C)CC4=C(CCC(=O)C4)[C@H]2CC[C@]13C [Example 10, (7α,14β,15β,17β)-17-[(Acetyloxy)methyl]-17-fluoro-7-methyl-14,15-methyleneestr-5(10)-en-3-one]
Res. (androgenic activity) (human androgen receptor): +

C[C@H](O)[C@@H]1C[C@H]2C[C@]23[C@H]2[C@H](CC[C@]13C)[C@H]1CCC(=O)C=C1C[C@H]2C [Example 11a, (7α,14β,15β,17α,20S)-20-Hydroxy-7-methyl-14,15-methylene-19-norpregn-4-en-3-one]
Res. (androgenic activity) (human androgen receptor): ++

C[C@@H]1CC2=CC(=O)CC[C@@H]2[C@H]2CC[C@]3(C)[C@H]([C@@H](C)O)C[C@H]4C[C@]43[C@@H]21 [Example 11b, (7α,14β,15β,17α,20R)-20-hydroxy-7-methyl-14,15-methylene-19-norpregn-4-en-3-one]
Res. (androgenic activity) (human androgen receptor): +

C[C@@H]1CC2=CC(=O)CC[C@@H]2[C@H]2CC[C@]3(C)[C@H](C(C)(C)O)C[C@H]4C[C@]43[C@@H]21 [Example 12, (7α,14β,15β,17α)-20-Hydroxy-7,20-dimethyl-14,15-methylene-19-norpregn-4-en-3-one]
Res. (androgenic activity) (human androgen receptor): +

CC[C@H](O)[C@@H]1C[C@H]2C[C@]23[C@H]2[C@H](CC[C@]13C)[C@H]1CCC(=O)C=C1C[C@H]2C [Example 13]
Res. (androgenic activity) (human androgen receptor): +

CC(=O)OC[C@@H]1C[C@H]2C[C@]23[C@H]2[C@H](CC[C@]13C)[C@H]1CCC(=O)C=C1C[C@H]2C [Example 14]
Res. (androgenic activity) (human androgen receptor): ++

C[C@@H]1CC2=C[C@@H](O)CC[C@@H]2[C@H]2CC[C@]3(C)[C@H](CO)C[C@H]4C[C@]43[C@@H]21 [Example 15a, (3β,7α,14β,15β,17α)-3-Hydroxy-7-methyl-14,15-methyleneestr-4-ene-17-methanol]
Res. (androgenic activity) (human androgen receptor): +++

C[C@@H]1CC2=C(CC[C@H](O)C2)[C@H]2CC[C@]3(C)[C@H](CO)C[C@H]4C[C@]43[C@H]12 [Example 15b1]
Res. (androgenic activity) (human androgen receptor): pro

C[C@@H]1CC2=C(CC[C@@H](O)C2)[C@H]2CC[C@]3(C)[C@H](CO)C[C@H]4C[C@]43[C@H]12 [Example 15b2, (3α,7α,14β,15β,17α)-3-Hydroxy-7-methyl-14,15-methyleneestr-5(10)-ene-17-methanol]
Res. (androgenic activity) (human androgen receptor): Pro

C[C@@H]1CC2=C[C@@H](O)CC[C@@H]2[C@H]2CC[C@]3(C)[C@](O)(CO)C[C@H]4C[C@]43[C@@H]21 [Example 15c1, (3β,7α,14β,15β,17β)-3,17-Dihydroxy-7-methyl-14,15-methyleneestr-4-ene-17methanol]
Res. (androgenic activity) (human androgen receptor): +

C[C@@H]1CC2=C[C@H](O)CC[C@@H]2[C@H]2CC[C@]3(C)[C@](O)(CO)C[C@H]4C[C@]43[C@@H]21 [Example 15c2, (3α,7α,15β,17β)-3,17-Dihydroxy-7-methyl-14,15-methyleneestr-4-ene-17-methanol]
Res. (androgenic activity) (human androgen receptor): +

Reference: patent US6706700B2, “14β,15β-methylene-17α-hydroxymethyl-androgens” (Akzo-Nobel, N.V., priority 1999, dated 2004)
